Source: US20160067232A1, “METHODS FOR TREATING A STROKE-RELATED SENSORIMOTOR IMPAIRMENT USING AMINOPYRIDINES” (Acorda Therapeutics, Inc., priority 2011, published 2016)

Key:
[1] = Hayes et al., J. Clin. Pharmacol. 2003; cited from earlier work
[2] = system: rats with middle cerebral artery occlusion (MCAO); assay: Infarct volume measurement, MCAO rats (Example 17); assay type: in vivo, Sprague Dawley rat
Experimental: Infarct measurement: Brains were embedded in paraffin and 5 micron thick coronal sections were cut using a microtome. Sections were stained with hematoxylin and eosin (H&E), using standard methods. Seven coronal sections (+4.7, +2.7, +0.7, −1.3, −3.3, −5.3 and −7.3, compared to bregma respectively) from each brain were photographed by a digital camera, and the infarct area on each slice was determined by NIH Image (Image J) using the “indirect method” (area of the intact contralateral [left] hemisphere−area of intact regions of the ipsilateral [right] hemisphere) to correct for brain edema. Infarct areas were then summed among slices and multiplied by slice thickness (the distance between sections) to give total infarct volume, which was expressed as a percentage of intact contralateral hemispheric volume.
Euthanasia and post-mortem processing: At day 70 after MCAO rats were anesthetized as described in Example 2, above.
Infarct measurement: Infarct measurement was performed as described in Example 2, above.
Statistical Methods: Changes from pre-treatment baseline values (Day 56) were calculated for each behavioral score at each time point assessed after dosing. Mean behavioral parameter data were subject to Analysis of Variance (ANOVA). Infarct volume data were analyzed by ANOVA. All data were expressed as means±SEM.

[3] = system: rats with middle cerebral artery occlusion (MCAO); assay: Body swing test, MCAO rats, dose escalation study (Example 17); assay type: in vivo, Sprague Dawley rat; settings: groups diverged prior to treatment initiation (FIG. 13)
Experimental: Body Swing: Evaluated at Day −1 (pre-operation), Day 1, Day 7, Day 14, Day 21, Day 28, Day 30, Day 32, Day 42, Day 44, Day 46, Day 56, Day 58, Day 60. Body swing was evaluated by counting head movements to one side or the other when suspended by tail. For this test, the rat was held approximately one (1) inch from the base of its tail. It was then elevated to an inch above a surface of a table. The rat was held in the vertical axis, defined as no more than 10° to either the left or the right side. A swing was recorded whenever the rat moved its head out of the vertical axis to either side. Before attempting another swing, the rat had to return to the vertical position for the next swing to be counted. Thirty (30) total swings were counted. […] Body swing scores were expressed as a percentage of rightward over total swings. […]
4-AP was evaluated for its ability to promote functional sensorimotor improvement following ischemic stroke in rats with stable motor deficits at times remote from their ischemic events. […]
Body Swing: Evaluated at Day −1 (pre-operation), Day 1, Day 7, Day 14, Day 21, Day 28, Day 35, Day 42, Day 49, Day 56, Day 59, Day 62, Day 65, Day 70. […]
Statistical Methods: Changes from pre-treatment baseline values (Day 56) were calculated for each behavioral score at each time point assessed after dosing. […]

Nc1ccncc1 [4-aminopyridine]
half life [1]: 1 to 1.5 h
Mean (SE) Infarct Volume (%) ([2]; 4-AP dose escalation 0.5, 1 and 2 mg/kg p.o. b.i.d. Days 56-65 after MCAO): 40.0 (2.3) %
Infarct volume, 4-aminopyridine versus vehicle (water) ([2]; Day 70 after MCAO): no differences in infarct volume were observed
Body swing performance [3]: no conclusions can be drawn
